Results reported in BindingDB's records for doi:10.3109/14756366.2011.584535 (Balikesir University, 2012).

How the values were obtained:
Carbonic anhydrase 2 = Carbonic anhydrase 2 (Homo sapiens, UniProt P00918); assay: CA Enzyme Assay
Method: (§1) CA activity was measured by the Maren method which is based on determination of the time required for the pH to decrease from 10.0 to 7.4 due to CO2 hydration [Maren et al., J. Pharm. Exp. Ther., 130:2629-2634].

Carbonic anhydrase 1 = Carbonic anhydrase 1 (Homo sapiens, UniProt P00915); assay: CA Enzyme Assay
Method: as §1

Chain of Carbonic anhydrase 1 (P00915 whole entry): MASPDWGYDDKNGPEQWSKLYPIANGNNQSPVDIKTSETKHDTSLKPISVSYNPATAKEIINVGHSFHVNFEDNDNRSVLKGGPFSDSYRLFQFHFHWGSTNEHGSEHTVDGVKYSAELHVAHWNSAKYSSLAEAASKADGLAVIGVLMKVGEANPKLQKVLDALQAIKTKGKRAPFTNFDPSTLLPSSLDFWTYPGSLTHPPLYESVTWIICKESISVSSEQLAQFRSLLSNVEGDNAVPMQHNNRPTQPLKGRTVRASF

Structure (SMILES)	IC50 (Carbonic anhydrase 2) [µM]	IC50 (Carbonic anhydrase 1) [µM]
CC12C=CC3=C4CCC(=O)C=C4CCC3C1CCC2O (stereo unspecified) [Trenbolone (2)]	159	55
CC/C(=C(/CC)c1ccc(O)cc1)c1ccc(O)cc1	89	94
CC1CCCC(O)CCCCCc2cc(O)cc(O)c2C(=O)O1 (stereo unspecified) [Zeranol (4)]	101	898
